Test: 34-day oral dosing in BBZDR rats (obesity and Type II diabetes model): body weight and metabolic parameters
Type: in vivo
Details: for Adipose Mass / Adipose Mass, percent of placebo response / Core Temperature / Core Temperature, percent of placebo response / Food Consumption / Food Consumption, percent of placebo response / Incidence of Glycosuria (Days) / Incidence of Glycosuria (Days), incidence rate / Psoas Mass / Psoas Mass, percent of placebo response / Water Consumption / Water Consumption, percent of placebo response / Incidence of Diabetes: 34 days; for Incidence of Diabetes: animals
From the text: The effects of Compound HE on body weight and metabolism were studied further in the BBZDR rat, a genetic model of obesity and Type II diabetes (Biomedical Research Models, Inc, Worcester, Mass.). BBZDR rats are a cross between the BBDR/W or strain and the fa/fa rat. In BBZDR rats, diabetes occurs in 98% of obese males at an average age of onset of 68±2 days. […] The pancreatic islets of the young obese diabetic males are profoundly enlarged with β cell hyperplasia and mild fibrosis. Studies of pancreatic sections immunostained for insulin and the GLUT-2 glucose transporter reveal focal reduction in β cell insulin content and a generalized reduction in GLUT-2 staining of β cell surface membranes. Lymphocytic insulitis is not detected in either lean or obese rats. In the absence of lymphopenia and autoimmunity, the lean BBZDR rats never become diabetic, and their pancreatic islets are normal in all respects.
Compound HE was administered to male BBZDR rats (48–60 days of age) via oral gavage for a period of 34 days. There were three treatment groups, each with 6 rats/group: a) placebo (1% carboxy methyl cellulose [CMC]), b) Compound HE at 100 mg/kg/day in 1% CMC, and c) Compound HE at 300 mg/kg/day in 1% CMC. The rats were gavaged twice daily for the entire period of the study. Body weight, food intake, fluid intake, and core body temperature were monitored on a daily basis. In addition, the rats were observed twice daily for any gross behavioral/phenotypic changes. Early in the study, two animals in the 300 mg/kg/day-dose group died from trauma secondary to oral gavage (confirmed during necropsy) and were excluded from all analyses.
On Day 21, after an overnight fast, whole blood, serum and plasma samples were collected from anesthetized animals. Prior to the termination of the study, tissue and plasma samples were collected from overnight-fasted animals for histological and biochemical analyses.

CC(C)CC(N[C@@H](Cc1cncn1Cc1cc(Cl)cc(Cl)c1)C(=O)O)C(=O)O (single isomer, unassigned) [HE, 2-[1-Carboxy-2-[3-(3,5-dichloro-benzyl)-3H-imidazol-4-yl]-ethylamino)4-methyl-pentanoic acid]
fluid intake, less than placebo (100 mg-treated group): 5% | food intake, less than placebo (100 mg-treated group): 5% | Fasted Glucose, Day 34, percent of placebo response (100 mg/kg/day oral gavage): (100%) | Fasted Insulin, Day 34 (100 mg/kg/day oral gavage): 8.4 ± 7.0 ng/mL | Fasted Insulin, Day 34, percent of placebo response (100 mg/kg/day oral gavage): (62%)^a | Fasted Leptin, Day 34 (100 mg/kg/day oral gavage): 99 ± 22 ng/mL | Fasted Leptin, Day 34, percent of placebo response (100 mg/kg/day oral gavage): (102.7%) | Fasted Total Cholest., Day 34 (100 mg/kg/day oral gavage): 117 ± 9 mg/dL | Fasted Total Cholest., Day 34, percent of placebo response (100 mg/kg/day oral gavage): (88%) | Total Fasted Triglyc., Day 34 (100 mg/kg/day oral gavage): 409 ± 6 mg/dL | Total Fasted Triglyc., Day 34, percent of placebo response (100 mg/kg/day oral gavage): (82%) | Weight Gain thru Day 34 (100 mg/kg/day oral gavage): 123 ± 3.4 g | Weight Gain thru Day 34, percent of placebo response (100 mg/kg/day oral gavage): (83.9%) | Adipose Mass (100 mg/kg/day oral gavage): 48.03 ± 1.86 g | Adipose Mass, percent of placebo response (100 mg/kg/day oral gavage): (94%) | Core Temperature (100 mg/kg/day oral gavage): 98.4 ± 0.13 F. | Core Temperature, percent of placebo response (100 mg/kg/day oral gavage): (100%) | Food Consumption (100 mg/kg/day oral gavage): 1283 ± 50.3 g | Food Consumption, percent of placebo response (100 mg/kg/day oral gavage): (94.4%) | Incidence of Glycosuria (Days) (100 mg/kg/day oral gavage): 31/198 | Incidence of Glycosuria (Days), incidence rate (100 mg/kg/day oral gavage): (15.7%) | Psoas Mass (100 mg/kg/day oral gavage): 1.30 ± 0.09 g | Psoas Mass, percent of placebo response (100 mg/kg/day oral gavage): (113%) | Water Consumption (100 mg/kg/day oral gavage): 1388 ± 73.5 mL | Water Consumption, percent of placebo response (100 mg/kg/day oral gavage): (94.6%) | Incidence of Diabetes (100 mg/kg/day oral gavage): 2/6 | fluid intake, less than placebo (300 mg-treated group): 15% | food intake, less than placebo (300 mg-treated group): 8% | Fasted Glucose, Day 34, percent of placebo response (300 mg/kg/day oral gavage): (94%) | Fasted Insulin, Day 34 (300 mg/kg/day oral gavage): 7.7 ± 4.1 ng/mL | Fasted Insulin, Day 34, percent of placebo response (300 mg/kg/day oral gavage): (57%)^a | Fasted Leptin, Day 34 (300 mg/kg/day oral gavage): 92 ± 5.3 ng/mL | Fasted Leptin, Day 34, percent of placebo response (300 mg/kg/day oral gavage): (76%) | Fasted Total Cholest., Day 34 (300 mg/kg/day oral gavage): 104 ± 5 mg/dL | Fasted Total Cholest., Day 34, percent of placebo response (300 mg/kg/day oral gavage): (78%) | Total Fasted Triglyc., Day 34 (300 mg/kg/day oral gavage): 414 ± 23 mg/dL | Total Fasted Triglyc., Day 34, percent of placebo response (300 mg/kg/day oral gavage): (82%) | Weight Gain thru Day 34 (300 mg/kg/day oral gavage): 125 ± 8.3 g | Weight Gain thru Day 34, percent of placebo response (300 mg/kg/day oral gavage): (82.5%) | Adipose Mass (300 mg/kg/day oral gavage): 48.43 ± 0.55 g | Adipose Mass, percent of placebo response (300 mg/kg/day oral gavage): (94%) | Core Temperature (300 mg/kg/day oral gavage): 98.4 ± 0.20 F. | Core Temperature, percent of placebo response (300 mg/kg/day oral gavage): (100%) | Food Consumption (300 mg/kg/day oral gavage): 1249 ± 26.8 g | Food Consumption, percent of placebo response (300 mg/kg/day oral gavage): (91.9%) | Incidence of Glycosuria (Days) (300 mg/kg/day oral gavage): 12/162 | Incidence of Glycosuria (Days), incidence rate (300 mg/kg/day oral gavage): (7.4%) | Psoas Mass (300 mg/kg/day oral gavage): 1.21 ± 0.10 g | Psoas Mass, percent of placebo response (300 mg/kg/day oral gavage): (105%) | Water Consumption (300 mg/kg/day oral gavage): 1271 ± 101.7 mL | Water Consumption, percent of placebo response (300 mg/kg/day oral gavage): (86.7%) | Incidence of Diabetes (300 mg/kg/day oral gavage): 1/4 | gross or histomorphological adverse effects (34 consecutive days of oral dosing): No gross or histomorphological adverse effects | gross abdominal adipose and psoas muscle mass and core body temperature, change between groups (all three groups): no changes | plasma levels of insulin, total cholesterol and triglycerides compared to placebo (both dose groups): lower | body weight gain over the 34 days, less than placebo (both dose groups (100 and 300 mg/kg/day)): approximately 18% | statistical significance of the changes versus placebo (oral administration for 34 days): not statistically significant
